Test results taken from patent US20220160669A1, “PARENTERAL NUTRITION FORMULATION” (BAXTER INTERNATIONAL INC., priority 2020, published 2022).

How the values were obtained:
Format in all cases: in vivo, pig
[1] = tested on: Neonatal Yorkshire/Landrace cross bred piglets; test: Brain structure development by MRI; set-up: key: + denotes a positive effect (compared to standard PN); ++ a very positive effect; − denotes no difference; details: compared to standard PN
Text: On study day 9, the piglets were submitted to Magnetic Resonance Imaging (MRI) using an Agilent 9.4 Tesla MRI system (Santa Clara, Calif.) to assess brain structural development and body composition. Heart rate and respiration were monitored during the entire MRI scan. For anatomic assessment of the brain targeting the hippocampus, images were obtained using a 3D T1-weighted magnetization prepared gradient-echo sequence: repetition time=1,900 ms; echo time=2.48 ms; inversion time=900 ms, flip angle=9°, matrix=256×256 (interpolated to 512×512), slice thickness=1.0 mm. For body composition assessment, a multi-slice, spin-echo technique was used to image the truncal area (longissimus fat/muscle): echo time=20 ms; recovery time=400 ms with four-signal averaging. […] Total scanning time was approximately 60 minutes to include both brain and body composition scanning. The MRI images were analyzed using OsiriX (Bernex, Switzerland). […] The average body weight and abdominal girth of the piglets in the Study Groups was also monitored.

[2] = tested on: Neonatal Yorkshire/Landrace cross bred piglets; test: Intestinal histomorphology: villus height and crypt depth; set-up: key to Villus (total) / Crypt (total): + denotes a positive effect (compared to standard PN); ++ a very positive effect; − denotes no difference; key to Total villus height / Total crypt depth: +++ indicate P < 0.01; ++ indicates P < 0.05; + indicates positive trends; = denotes no significant P value; − denotes negative trends; details: for % Δ from PN, Total C (crypt depth) / % Δ from PN, Total V (villus height): sum over sections; for Crypt (total) / Villus (total): all sections, compared to standard PN; for Total crypt depth / Total villus height: compared to standard PN (s-PN)
Method: (§1) Neonatal Yorkshire/Landrace cross bred piglets (n=72; six at a time from the same litter, repeating 12 times) were obtained from Oak Hill Genetics (Ewing, Ill.) after 48-hour sow reared for colostrum consumption and iron supplementation.
Formalin-fixed intestinal samples were embedded in paraffin, sliced to approximately 5-μm thickness with a microtome and stained with hematoxylin and eosin (FIG. 6). Villus height, midvillus width, and crypt depth were measured by using a Nikon Optiphot-2 microscope (Nikon, Melville, N.Y.) and ImagePro Express software (Version 4.5; Media Cybernetics, Inc, Silver Spring, Md.) in 8 to 10 well-oriented villi and crypts. Villus surface area (villus height×midvillus width) was also calculated. In addition, intestinal segment circumference was measured to estimate intestinal surface area. The results are provided in FIGS. 7 through 12 (see there for details). […] The Table summarizes the average difference (in % of each Intervention Group (A, B, C, D) versus the PN Group) of the villus height and the crypt depth in the different sections of the gut, i.e. duodenum, jejunum, ileum and colon. The Intervention Groups show an improved villus height compared to the s-PN Group.

[3] = tested on: Anti-inflammatory cytokines; test: Anti-inflammatory cytokines, summary (site not stated); set-up: key: + denotes a positive effect (compared to standard PN); ++ a very positive effect; − denotes no difference; details: compared to standard PN
Text: as §1
(§2) The influence of the respective supplements on inflammation was investigated by determining Il-6, Il-1beta, TNF-alpha and Il-10 serum levels in the intervention groups compared to EN and PN according to Milo et al., Effects of Short-Chain Fatty Acid-Supplemented Total Parenteral Nutrition on Intestinal Pro-Inflammatory Cytokine Abundance. Digestive Diseases and Sciences 2002; 47:2049-2055. Jejunal and ileal samples were homogenized in double-distilled water, and the Bradford protein assay (Biorad, Hercules, Calif., USA) was performed on homogenate and plasma samples. Protein (30 μg) from each sample was denatured by boiling, and proteins were separated by size using 12.5% sodium dodecyl sulfate polyacrylamide gel electrophoresis. Separated proteins were transferred to polyvinylidene difluoride membranes (Biorad) using a semidry transfer apparatus (Biorad). Western blot analysis for TNF-alpha, IL-1beta, Il-10 and IL-6 was performed using porcine-specific polyclonal antibodies (Endogen, Woburn, Mass., USA). A mouse anti-pig monoclonal TNF-alpha antibody was used to detect TNF-alpha ([…]). Rabbit anti-pig polyclonal antibodies specific for IL-1beta and IL-6 were used to detect IL-1beta (17,500 kDa), Il-10 (18,600 kDa) and IL-6 (26,000 kDa). Membranes were developed using the Opti-4CN kit (Biorad) and photographed using the FOTO/Analyst Image Analysis System (Fotodyne, Inc., Hartland, Wis., USA). Densitometry of TNF-alpha, IL-1beta, IL-6, and Il-10 was performed using Collage Image Analysis Software 4.0 (Fotodyne, Inc.). Results are shown in FIG. 15 (Il-6), FIG. 16 (Illbeta), FIG. 17 (TNF-alpha) and FIG. 18 (Il-10).

[4] = tested on: Il-10; test: Serum cytokine quantification, Il-10
Text: as §1, §2

[5] = tested on: sIgA; test: IgA quantification (jejunal sIgA, ELISA); set-up: key to IgA: + denotes a positive effect (compared to standard PN); ++ a very positive effect; − denotes no difference; details: for Jejunal sIgA Concentration: compared to standard PN (s-PN); for IgA: compared to standard PN
Text: as §1
Small intestine probes for IgA level determination were obtained by flushing the small intestine with chilled HBSS (Hank's Balanced Salt Solution). Nasal and bronchoalveolar washings for measurement of respiratory tract IgA levels were obtained by lavage with 1 mL phosphate-buffered saline solution under anesthesia. The washings were stored in a −80° C. freezer until IgA analysis. IgA was measured in small intestinal and respiratory tract washings by sandwich enzyme-linked immunosorbent assay using a polyclonal goat anti-mouse IgA (Sigma) to coat the plate, a purified mouse IgA (Zymed Laboratories, San Francisco, Calif.) as the standard, and a horseradish peroxidase-conjugated goat anti-mouse IgA (Sigma).

L-arginine, butanoate (3:4) [Arginine butyrate]
Brain ([1]; 10 mmol/L in PN): −
average duodenal crypt length (crypt depth, FIG. 8) ([2]; 10 mmol/L TPN): slightly better even than Groups A and D
average duodenal villous length (FIG. 7) ([2]; 10 mmol/L TPN): only slightly below the mean values determined for Groups B and D
average ileal crypt depth (FIG. 11) ([2]; 10 mmol/L TPN): close behind
average jejunal crypt depth (FIG. 10) ([2]; 10 mmol/L TPN): gave the best results
average jejunal villous length (FIG. 9) ([2]; 10 mmol/L TPN): gave the best results
improvement of the gut architecture in total ([2]; 10 mmol/L TPN (Group C), versus other groups): most prominent improvement of the gut architecture
% Δ from PN, Colon C (crypt depth) ([2]; 10 mmol/L TPN (Groups A, C, D)): +22%
% Δ from PN, Duodenum C (crypt depth) ([2]; 10 mmol/L TPN (Groups A, C, D)): +15%
% Δ from PN, Duodenum V (villus height) ([2]; 10 mmol/L TPN (Groups A, C, D)): +35%
% Δ from PN, Ileum C (crypt depth) ([2]; 10 mmol/L TPN (Groups A, C, D)): +7%
% Δ from PN, Ileum V (villus height) ([2]; 10 mmol/L TPN (Groups A, C, D)): +16%
% Δ from PN, Jejunum C (crypt depth) ([2]; 10 mmol/L TPN (Groups A, C, D)): +3%
% Δ from PN, Jejunum V (villus height) ([2]; 10 mmol/L TPN (Groups A, C, D)): +26%
% Δ from PN, Total Total (crypt + villus) ([2]; 10 mmol/L TPN (Groups A, C, D)): +124%
% Δ from PN, Total C (crypt depth) ([2]; 10 mmol/L TPN (Groups A, C, D)): +47%
% Δ from PN, Total V (villus height) ([2]; 10 mmol/L TPN (Groups A, C, D)): +77%
Crypt (total) ([2]; 10 mmol/L in PN): +
Villus (total) ([2]; 10 mmol/L in PN): +
Total crypt depth ([2]; 10 mmol/L): +
Total villus height ([2]; 10 mmol/L): +
gut architecture, systemic and local inflammation and systemic and local immunity (overall) ([2]; versus the Group which obtained standard PN): especially beneficial
Anti-inflammatory cytokines ([3]; 10 mmol/L in PN): ++
serum levels of Il-10 (FIG. 18) ([4]; 10 mmol/L TPN (Groups A, C, D)): lower than in the standard PN Group P
Jejunal sIgA Concentration ([5]; 10 mmol/L): +++^3 (+++ indicate P < 0.01)

CCCCCCCCCCCCCCCC(=O)OCC(COC(=O)CCC)OC(=O)CCCCCCCCCCCCCCC (centres unmarked) [1,2-Dipalmitoyl 3-butyryl glycerol]
Brain ([1]; 10 mmol/L in PN): −
average duodenal crypt length (crypt depth, FIG. 8) ([2]; 10 mmol/L TPN): gave the best results
average duodenal villous length (FIG. 7) ([2]; 10 mmol/L TPN): increased villous length compared to the other study groups
average ileal crypt depth (FIG. 11) ([2]; 10 mmol/L TPN): significant difference
average jejunal crypt depth (FIG. 10) ([2]; 10 mmol/L TPN): lower
average jejunal villous length (FIG. 9) ([2]; 10 mmol/L TPN): relatively good results
% Δ from PN, Colon C (crypt depth) ([2]; 10 mmol/L TPN (Groups A, C, D)): +12%
% Δ from PN, Duodenum C (crypt depth) ([2]; 10 mmol/L TPN (Groups A, C, D)): +19%
% Δ from PN, Duodenum V (villus height) ([2]; 10 mmol/L TPN (Groups A, C, D)): +31%
% Δ from PN, Ileum C (crypt depth) ([2]; 10 mmol/L TPN (Groups A, C, D)): +15%
% Δ from PN, Ileum V (villus height) ([2]; 10 mmol/L TPN (Groups A, C, D)): +24%
% Δ from PN, Jejunum C (crypt depth) ([2]; 10 mmol/L TPN (Groups A, C, D)): +2%
% Δ from PN, Jejunum V (villus height) ([2]; 10 mmol/L TPN (Groups A, C, D)): +5%
% Δ from PN, Total Total (crypt + villus) ([2]; 10 mmol/L TPN (Groups A, C, D)): +110%
% Δ from PN, Total C (crypt depth) ([2]; 10 mmol/L TPN (Groups A, C, D)): +50%
% Δ from PN, Total V (villus height) ([2]; 10 mmol/L TPN (Groups A, C, D)): +60%
Crypt (total) ([2]; 10 mmol/L in PN): +
Villus (total) ([2]; 10 mmol/L in PN): +
Anti-inflammatory cytokines ([3]; 10 mmol/L in PN): +
serum levels of Il-10 (FIG. 18) ([4]; 10 mmol/L TPN (Groups A, C, D)): almost or about as low
IgA ([5]; 10 mmol/L in PN): ++

CCCC(=O)OCC(COC(=O)CCC)OC(=O)CCC [Tributyrin]
Brain ([1]; 10 mmol/L in PN): −
Brain ([1]; 30 mmol/L in PN): −
average duodenal crypt length (crypt depth, FIG. 8) ([2]; 10 mmol/L TPN): gave the best results
average duodenal villous length (FIG. 7) ([2]; 10 mmol/L TPN): only slightly below the mean values determined for Groups B and D
average ileal crypt depth (FIG. 11) ([2]; 10 mmol/L TPN): significant difference
average jejunal crypt depth (FIG. 10) ([2]; 10 mmol/L TPN): lower
% Δ from PN, Colon C (crypt depth) ([2]; 10 mmol/L TPN (Groups A, C, D)): +9%
% Δ from PN, Duodenum C (crypt depth) ([2]; 10 mmol/L TPN (Groups A, C, D)): +11%
% Δ from PN, Duodenum V (villus height) ([2]; 10 mmol/L TPN (Groups A, C, D)): +32%
% Δ from PN, Ileum C (crypt depth) ([2]; 10 mmol/L TPN (Groups A, C, D)): +17%
% Δ from PN, Ileum V (villus height) ([2]; 10 mmol/L TPN (Groups A, C, D)): +14%
% Δ from PN, Jejunum C (crypt depth) ([2]; 10 mmol/L TPN (Groups A, C, D)): −8%
% Δ from PN, Jejunum V (villus height) ([2]; 10 mmol/L TPN (Groups A, C, D)): +14%
% Δ from PN, Total Total (crypt + villus) ([2]; 10 mmol/L TPN (Groups A, C, D)): +89%
% Δ from PN, Total C (crypt depth) ([2]; 10 mmol/L TPN (Groups A, C, D)): +29%
% Δ from PN, Total V (villus height) ([2]; 10 mmol/L TPN (Groups A, C, D)): +60%
Crypt (total) ([2]; 10 mmol/L in PN): +
Villus (total) ([2]; 10 mmol/L in PN): +
Total crypt depth ([2]; 10 mmol/L): +
Total villus height ([2]; 10 mmol/L): +
average duodenal crypt length (crypt depth, FIG. 8) ([2]; 30 mmol/L TPN): better crypt depth than S-PN, but is not as good as Groups A, C and D
average duodenal villous length (FIG. 7) ([2]; 30 mmol/L TPN): increased villous length compared to the other study groups
% Δ from PN, Colon C (crypt depth) ([2]; 30 mmol/L TPN (Group B)): +10%
% Δ from PN, Duodenum C (crypt depth) ([2]; 30 mmol/L TPN (Group B)): +12%
% Δ from PN, Duodenum V (villus height) ([2]; 30 mmol/L TPN (Group B)): +12%
% Δ from PN, Ileum C (crypt depth) ([2]; 30 mmol/L TPN (Group B)): +27%
% Δ from PN, Ileum V (villus height) ([2]; 30 mmol/L TPN (Group B)): +31%
% Δ from PN, Jejunum C (crypt depth) ([2]; 30 mmol/L TPN (Group B)): −14%
% Δ from PN, Jejunum V (villus height) ([2]; 30 mmol/L TPN (Group B)): +5%
% Δ from PN, Total Total (crypt + villus) ([2]; 30 mmol/L TPN (Group B)): +111%
average jejunal crypt depth (FIG. 10) ([2]; 30 mmol/L TPN (Group B)): lower
% Δ from PN, Total C (crypt depth) ([2]; 30 mmol/L TPN (Group B)): +63%
% Δ from PN, Total V (villus height) ([2]; 30 mmol/L TPN (Group B)): +48%
Crypt (total) ([2]; 30 mmol/L in PN): ++
Villus (total) ([2]; 30 mmol/L in PN): ++
Total crypt depth ([2]; 30 mmol/L): +
Total villus height ([2]; 30 mmol/L): +
average jejunal villous length (FIG. 9) ([2]; Group B, printed in b62 as 10 mmol/L TPN): relatively low
Anti-inflammatory cytokines ([3]; 10 mmol/L in PN): −
Anti-inflammatory cytokines ([3]; 30 mmol/L in PN): +
serum levels of Il-10 (FIG. 18) ([4]; 10 mmol/L TPN (Groups A, C, D)): lower than in the standard PN Group P
serum levels of Il-10 (FIG. 18) ([4]; 30 mmol/L TPN (Group B)): lower than in the standard PN Group P
IgA ([5]; 10 mmol/L in PN): ++
Jejunal sIgA Concentration ([5]; 10 mmol/L): ++^5 (++ indicates P < 0.05)
IgA ([5]; 30 mmol/L in PN): ++
Jejunal sIgA Concentration ([5]; 30 mmol/L): ++^5 (++ indicates P < 0.05)
